Data as given in PMC5513680 (Medical Science Monitor : International Medical Journal of …, 2017).

Tests used:
Format in all cases: biochemical
[1] = target: butylcholinesterase (BuChE) (Homo sapiens, UniProt P06276); test: BChE inhibition assay
[2] = target: Acetylcholinesterase (AChE) (Homo sapiens, UniProt P22303); test: AChE inhibition assay; conditions: for Selectivity Index (SI): determined by BuChE/AChE (IC50 ratio)
[3] = target: Aβ (1–42) (Homo sapiens, UniProt P05067); test: Self-mediated Aβ
[4] = target: β-secretase (Homo sapiens, UniProt P56817); test: β-secretase inhibition assay
Sequence of β-secretase (P56817 46-501): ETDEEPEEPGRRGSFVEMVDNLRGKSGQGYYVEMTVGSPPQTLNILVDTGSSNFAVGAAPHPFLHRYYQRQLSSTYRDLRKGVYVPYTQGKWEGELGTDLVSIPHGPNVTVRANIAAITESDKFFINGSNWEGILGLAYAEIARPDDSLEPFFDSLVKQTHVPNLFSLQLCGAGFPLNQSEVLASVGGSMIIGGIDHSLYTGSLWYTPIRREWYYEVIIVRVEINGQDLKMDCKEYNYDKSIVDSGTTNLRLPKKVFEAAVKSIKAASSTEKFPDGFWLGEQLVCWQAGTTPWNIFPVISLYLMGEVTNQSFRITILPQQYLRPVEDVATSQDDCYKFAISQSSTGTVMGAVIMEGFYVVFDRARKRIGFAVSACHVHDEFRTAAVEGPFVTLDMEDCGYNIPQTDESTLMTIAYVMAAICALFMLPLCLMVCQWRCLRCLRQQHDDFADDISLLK

Sequence of butylcholinesterase (BuChE) (P06276 29-602): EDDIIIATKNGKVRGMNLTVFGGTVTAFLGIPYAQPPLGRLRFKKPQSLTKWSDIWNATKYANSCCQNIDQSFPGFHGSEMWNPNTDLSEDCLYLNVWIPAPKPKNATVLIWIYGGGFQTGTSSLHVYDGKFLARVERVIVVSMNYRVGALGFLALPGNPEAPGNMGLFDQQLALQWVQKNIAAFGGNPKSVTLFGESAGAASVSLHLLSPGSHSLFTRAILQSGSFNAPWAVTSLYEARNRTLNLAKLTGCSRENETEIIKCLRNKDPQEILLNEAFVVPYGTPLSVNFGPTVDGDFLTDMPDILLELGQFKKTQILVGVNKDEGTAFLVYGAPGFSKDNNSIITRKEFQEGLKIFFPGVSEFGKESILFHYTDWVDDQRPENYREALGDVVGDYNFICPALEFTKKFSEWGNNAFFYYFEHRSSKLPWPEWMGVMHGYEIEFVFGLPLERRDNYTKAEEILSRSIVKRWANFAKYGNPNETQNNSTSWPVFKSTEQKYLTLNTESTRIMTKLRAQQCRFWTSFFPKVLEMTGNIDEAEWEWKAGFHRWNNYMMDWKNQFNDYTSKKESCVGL
Sequence of Acetylcholinesterase (AChE) (P22303 32-614, species assumed): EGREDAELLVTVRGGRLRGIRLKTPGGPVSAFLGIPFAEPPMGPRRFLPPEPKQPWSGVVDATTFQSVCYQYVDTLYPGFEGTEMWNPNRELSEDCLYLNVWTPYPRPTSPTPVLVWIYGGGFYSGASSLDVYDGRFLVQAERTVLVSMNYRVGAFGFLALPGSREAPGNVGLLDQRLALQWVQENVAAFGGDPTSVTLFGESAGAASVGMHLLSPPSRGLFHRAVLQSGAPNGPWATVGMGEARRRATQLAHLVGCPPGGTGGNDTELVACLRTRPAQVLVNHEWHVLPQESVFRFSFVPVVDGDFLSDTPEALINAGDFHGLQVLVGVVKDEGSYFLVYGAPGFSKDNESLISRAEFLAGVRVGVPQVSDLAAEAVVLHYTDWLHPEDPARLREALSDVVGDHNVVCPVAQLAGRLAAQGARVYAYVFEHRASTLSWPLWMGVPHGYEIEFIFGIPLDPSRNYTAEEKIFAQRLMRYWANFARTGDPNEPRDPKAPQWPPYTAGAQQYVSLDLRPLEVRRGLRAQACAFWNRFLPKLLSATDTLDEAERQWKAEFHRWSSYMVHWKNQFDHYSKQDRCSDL
Sequence of Aβ (1–42) (P05067 672-713): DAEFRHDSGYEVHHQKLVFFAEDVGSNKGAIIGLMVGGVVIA

SMILES	IC50 [1] [µM]	IC50 [2] [µM]	Selectivity Index (SI) [2]	fold less active against BuChE than the parent compound (8g) ([1]; relative to 8g)	fold less active against AChE than the parent compound (8g) ([2]; relative to 8g)	IC50 [3] [µM]	IC50 [4] [µM]
O=C(/C=C/c1ccccc1)c1ccc(OCCNC2CCN(Cc3ccccc3)CC2)cc1 [8a, (E)-1-(4-(2-((1-benzylpiperidin-4-yl)amino)ethoxy)phenyl)-3-phenylprop-2-en-1-one]	21.72 ± 0.11	32.34 ± 0.26	0.67				
O=C(/C=C/c1ccccc1)c1ccc(OCCNC2CCN(Cc3ccc(Cl)cc3)CC2)cc1 [8b, (E)-1-(4-(2-((1-(4-chlorobenzyl)piperidin-4-yl)amino)ethoxy)phenyl)-3-phenylprop-2-en-1-one]	19.45 ± 0.15	10 ± 0.54	1.93				
O=C(/C=C/c1ccccc1)c1ccc(OCCNC2CCN(Cc3ccc(Br)cc3)CC2)cc1 [8c, (E)-1-(4-(2-((1-(4-bromobenzyl)piperidin-4-yl)amino)ethoxy)phenyl)-3-phenylprop-2-en-1-one]	28.4 ± 0.42	18.1 ± 0.33	1.56				
O=C(/C=C/c1ccccc1)c1ccc(OCCNC2CCN(Cc3ccc(F)cc3)CC2)cc1 [8d, (E)-1-(4-(2-((1-(4-fluorobenzyl)piperidin-4-yl)amino)ethoxy)phenyl)-3-phenylprop-2-en-1-one]	26.5 ± 0.28	14.2 ± 0.15	1.86				
O=C(/C=C/c1ccccc1)c1ccc(OCCNC2CCN(Cc3ccc([N+](=O)[O-])cc3)CC2)cc1 [8e, (E)-1-(4-(2-((1-(4-nitrobenzyl)piperidin-4-yl)amino)ethoxy)phenyl)-3-phenylprop-2-en-1-one]	25 ± 0.31	28.62 ± 0.22	0.87				
COc1ccc(CN2CCC(NCCOc3ccc(C(=O)/C=C/c4ccccc4)cc3)CC2)cc1 [8f, (E)-1-(4-(2-((1-(4-methoxybenzyl)piperidin-4-yl)amino)ethoxy)phenyl)-3-phenylprop-2-en-1-one]	9.45 ± 0.25	4.22 ± 0.34	2.23	approximately 3 fold	approximately 3 fold		
Cc1ccc(CN2CCC(NCCOc3ccc(C(=O)/C=C/c4ccccc4)cc3)CC2)cc1 [8g, (E)-1-(4-(2-((1-(4-methylbenzyl)piperidin-4-yl)amino)ethoxy)phenyl)-3-phenylprop-2-en-1-one]	3.23 ± 0.12	1.12 ± 0.13	2.88			18.2 ± 2.3	23.1 ± 1.8
O=C(/C=C/c1ccccc1)c1ccc(OCCNC2CCN(Cc3ccc(Cl)c(Cl)c3)CC2)cc1 [8h, (E)-1-(4-(2-((1-(3,4-dichlorobenzyl)piperidin-4-yl)amino)ethoxy)phenyl)-3-phenylprop-2-en-1-one]			1.06				
